Assay: Further oral pharmacokinetic study in female Balb/c mice, 5, 10 and 20 mg/kg
Conditions: mouse, plasma; for half-life: t½
[1] = 5 mg/kg, Mean, 5 mg/kg single oral dose
[2] = 5 mg/kg, Median, 5 mg/kg single oral dose
[3] = 10 mg/kg, Mean, 10 mg/kg single oral dose
[4] = 10 mg/kg, Median, 10 mg/kg single oral dose
[5] = 20 mg/kg, Mean, 20 mg/kg single oral dose
[6] = 20 mg/kg, Median, 20 mg/kg single oral dose

AUC(0-t) (5 mg/kg, AUC 0-24, Mean, 5 mg/kg single oral dose): 4690 ng·h/mL
AUC(0-t) (5 mg/kg, AUC 0-24, Median, 5 mg/kg single oral dose): 4310 ng·h/mL
Cmax [1]: 1850 ng/mL
Cmax [2]: 1800 ng/mL
Tmax [1]: 1.2 h
Tmax [2]: 1 h
half-life [1]: 1.17 h
half-life [2]: 1.12 h
AUC(0-t) (10 mg/kg, AUC 0-24, Mean, 10 mg/kg single oral dose): 7580 ng·h/mL
AUC(0-t) (10 mg/kg, AUC 0-24, Median, 10 mg/kg single oral dose): 7590 ng·h/mL
Cmax [3]: 2630 ng/mL
Cmax [4]: 2420 ng/mL
Tmax [3]: 1.25 h
Tmax [4]: 1 h
half-life [3]: 1.42 h
half-life [4]: 1.53 h
AUC(0-t) (20 mg/kg, AUC 0-24, Mean, 20 mg/kg single oral dose): 20100 ng·h/mL
AUC(0-t) (20 mg/kg, AUC 0-24, Median, 20 mg/kg single oral dose): 21700 ng·h/mL
Cmax [5]: 5360 ng/mL
Cmax [6]: 5660 ng/mL
Tmax [5]: 1.1 h
Tmax [6]: 1 h
half-life [5]: 2.46 h
half-life [6]: 2.46 h
SMILES: CC[C@H]1OC(=O)[C@@](C)(F)C(=O)[C@H](C)[C@@H](O[C@@H]2O[C@H](C)C[C@H](N(C)C)[C@H]2O)[C@](C)(OC)C[C@@H](C)C(=O)[C@H](C)[C@H]2N(CCCCn3cc(-c4cccc(N)c4)nn3)C(=O)O[C@]12C [Form II, solithromycin]

— patent publication US8759500B2, “Crystalline forms of a macrolide, and uses therefor” (Cempra Pharmaceuticals, Inc., priority 2010, dated 2014)
